Among the data in ChEMBL document CHEMBL1201862, “PubChem BioAssay data set” (2004) are IC50, AC50 and EC50 values, retold here.

One series deals with Phospholipase A2 (Homo sapiens, UniProt P04054). It is filed as functional.
The target in series [1] is T1, Cytochrome P450 2D6 (Homo sapiens, UniProt P10635).
A further series concerns the target Cytochrome P450 3A4 (Homo sapiens, UniProt P08684).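 Note: CYP3A4 tested as one member of a cytochrome P450 panel screen.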
The target in the next series is Cytochrome P450 2C9 (Homo sapiens, UniProt P11712).
Sequence of Cytochrome P450 2C9 (P11712 whole entry): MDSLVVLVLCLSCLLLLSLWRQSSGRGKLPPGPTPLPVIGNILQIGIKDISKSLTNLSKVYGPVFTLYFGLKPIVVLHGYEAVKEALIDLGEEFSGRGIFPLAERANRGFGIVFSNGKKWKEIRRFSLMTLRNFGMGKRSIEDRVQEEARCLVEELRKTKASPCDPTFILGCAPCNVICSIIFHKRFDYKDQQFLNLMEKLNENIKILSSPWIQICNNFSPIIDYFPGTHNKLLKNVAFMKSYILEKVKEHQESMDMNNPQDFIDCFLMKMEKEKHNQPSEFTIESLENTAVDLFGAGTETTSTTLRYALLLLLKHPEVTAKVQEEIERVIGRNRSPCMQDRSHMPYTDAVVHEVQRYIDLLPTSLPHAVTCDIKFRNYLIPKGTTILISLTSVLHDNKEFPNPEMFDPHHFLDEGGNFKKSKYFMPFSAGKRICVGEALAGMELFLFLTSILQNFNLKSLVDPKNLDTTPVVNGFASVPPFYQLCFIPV
In another series the target is T2, Cysteine protease ATG4B (Homo sapiens, UniProt Q9Y4P1).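 Note: Fluorescence-based dose-response confirmation assay measuring inhibition of ATG4B activity.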
T2 sequence (Q9Y4P1 whole entry): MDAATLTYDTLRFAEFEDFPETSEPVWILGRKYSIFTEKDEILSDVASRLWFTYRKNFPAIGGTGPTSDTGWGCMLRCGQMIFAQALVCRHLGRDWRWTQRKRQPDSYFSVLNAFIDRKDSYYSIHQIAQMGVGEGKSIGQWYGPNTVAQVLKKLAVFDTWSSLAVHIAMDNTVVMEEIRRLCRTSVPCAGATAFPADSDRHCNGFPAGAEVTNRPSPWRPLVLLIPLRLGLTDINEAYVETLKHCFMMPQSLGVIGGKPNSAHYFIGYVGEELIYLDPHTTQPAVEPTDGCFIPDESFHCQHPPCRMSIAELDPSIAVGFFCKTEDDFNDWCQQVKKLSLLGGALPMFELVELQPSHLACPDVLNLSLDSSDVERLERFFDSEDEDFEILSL
It is filed as functional.

Series [2] addresses Dual specificity protein kinase CLK1 (Homo sapiens, UniProt P49759). Kind of series: inhibition of human CLK1 activity – biochemical, cherry-picked samples, selectivity assay for Dyrk1A inhibitor project, dose response (AID 588811).
Series [3] concerns the target Dual specificity tyrosine-phosphorylation-regulated kinase 1A (Rattus norvegicus, UniProt Q63470). It is filed as biochemical, Homo sapiens.
In series [4] the target is T1, Cytochrome P450 2D6. The source holds these as a separate data set.
The target in another series is T3, Cytochrome P450 1A2 (Homo sapiens, UniProt P05177).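 Note: PubChem cytochrome P450 panel assay, CYP1A2 panel member.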
T3 sequence (P05177 whole entry): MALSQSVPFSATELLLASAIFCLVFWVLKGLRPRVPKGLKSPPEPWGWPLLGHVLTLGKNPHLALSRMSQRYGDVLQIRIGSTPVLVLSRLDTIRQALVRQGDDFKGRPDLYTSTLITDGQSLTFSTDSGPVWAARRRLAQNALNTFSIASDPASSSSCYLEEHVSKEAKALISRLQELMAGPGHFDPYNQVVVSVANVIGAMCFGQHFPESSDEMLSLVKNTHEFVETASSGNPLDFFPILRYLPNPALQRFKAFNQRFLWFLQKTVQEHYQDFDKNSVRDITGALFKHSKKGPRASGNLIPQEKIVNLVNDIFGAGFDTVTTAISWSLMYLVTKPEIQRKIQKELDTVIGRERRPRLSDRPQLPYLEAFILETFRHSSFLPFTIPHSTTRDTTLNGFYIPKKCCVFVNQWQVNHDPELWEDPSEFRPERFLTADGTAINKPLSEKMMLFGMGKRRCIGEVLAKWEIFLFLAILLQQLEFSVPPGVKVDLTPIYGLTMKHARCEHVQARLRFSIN

The target of series [5] is T4, Ubiquitin-conjugating enzyme E2 N (Homo sapiens, UniProt P61088).
T4 sequence (P61088 whole entry): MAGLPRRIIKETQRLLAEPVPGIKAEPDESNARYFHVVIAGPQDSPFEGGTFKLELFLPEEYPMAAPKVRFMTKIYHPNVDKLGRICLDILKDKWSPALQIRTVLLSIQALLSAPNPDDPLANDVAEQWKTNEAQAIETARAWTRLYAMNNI
It is filed as functional.

Series [6] deals with T4, Ubiquitin-conjugating enzyme E2 N. The class given is functional. This is another data set of the same source.
For another series, the target named is T5, Bcl-2-related protein A1 (Mus musculus, UniProt Q07440).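 Note: confirmatory dose–response counterscreen on Bfl-1, used to check hits from a UBC13 polyubiquitin inhibitor campaign.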
T5 sequence (Q07440 whole entry): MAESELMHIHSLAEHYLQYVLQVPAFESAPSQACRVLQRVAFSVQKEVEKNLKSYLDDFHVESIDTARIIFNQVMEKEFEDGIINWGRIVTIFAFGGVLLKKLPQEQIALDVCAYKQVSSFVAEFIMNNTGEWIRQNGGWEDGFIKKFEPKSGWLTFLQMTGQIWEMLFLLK
The class given is functional.

The next series concerns the target Cytochrome P450 2C19 (Homo sapiens, UniProt P33261). The series is described as follows: Cytochrome panel assay with activity outcomes. Panel member name: p450-cyp2c19 Compounds with AC50 equal or less than 10 uM are considered active. It is filed as functional.
Series [7] concerns the target DNA dC->dU-editing enzyme APOBEC-3A (Homo sapiens, UniProt P31941). Kind of series: Dose Response confirmation of small molecule APOBEC3A DNA Deaminase Inhibitors via a fluorescence-based single-stranded DNA deaminase assay. [Related pubchem assays (depositor defined):AID493011, AID493024]. It is filed as functional.
For the next series, the target named is T6, Caspase-6 (Homo sapiens, UniProt P55212).
T6 sequence (P55212 whole entry): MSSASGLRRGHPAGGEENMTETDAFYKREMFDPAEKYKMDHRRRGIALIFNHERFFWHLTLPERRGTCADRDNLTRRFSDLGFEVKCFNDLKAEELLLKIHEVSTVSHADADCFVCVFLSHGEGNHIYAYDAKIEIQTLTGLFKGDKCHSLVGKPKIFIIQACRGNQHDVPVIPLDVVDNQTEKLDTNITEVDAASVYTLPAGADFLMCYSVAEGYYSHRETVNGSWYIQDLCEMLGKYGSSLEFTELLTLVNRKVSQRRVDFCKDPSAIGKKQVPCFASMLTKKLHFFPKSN
Kind of series: inhibition of CASP6 peptide cleavage – biochemical, VEID-R110 fluorescence, cherry-pick, dose response (AID 720632).

Series [8] has as its target DNA dC->dU-editing enzyme APOBEC-3G (Homo sapiens, UniProt Q9HC16). It is filed as functional.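 Note: Dose-response counterscreen measuring inhibition of APOBEC3G DNA deaminase activity, run while confirming APOBEC3A inhibitors.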
For a further series, the target named is T7, Coagulation factor XII (Homo sapiens, UniProt P00748).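 Note: activated factor XIIa alpha cleaving a fluorogenic AMC peptide substrate; inhibitor potency from loss of enzyme activity.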
T7 sequence (P00748 whole entry): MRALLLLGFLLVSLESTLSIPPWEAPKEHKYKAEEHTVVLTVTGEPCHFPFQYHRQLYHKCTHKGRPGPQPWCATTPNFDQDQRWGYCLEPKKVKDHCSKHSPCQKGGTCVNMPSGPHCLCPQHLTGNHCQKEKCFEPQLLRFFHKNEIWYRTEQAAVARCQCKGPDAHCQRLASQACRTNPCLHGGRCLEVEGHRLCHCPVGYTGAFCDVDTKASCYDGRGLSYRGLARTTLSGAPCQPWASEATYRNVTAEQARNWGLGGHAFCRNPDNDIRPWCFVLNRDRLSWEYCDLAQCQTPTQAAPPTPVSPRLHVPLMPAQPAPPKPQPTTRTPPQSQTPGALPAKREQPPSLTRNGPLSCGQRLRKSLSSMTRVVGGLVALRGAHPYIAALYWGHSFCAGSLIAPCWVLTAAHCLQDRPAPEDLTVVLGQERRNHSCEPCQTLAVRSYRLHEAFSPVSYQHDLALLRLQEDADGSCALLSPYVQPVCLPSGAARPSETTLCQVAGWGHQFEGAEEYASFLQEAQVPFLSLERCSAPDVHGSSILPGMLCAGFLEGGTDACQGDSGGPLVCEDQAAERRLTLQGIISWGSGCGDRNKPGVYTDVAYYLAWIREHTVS
It is filed as functional.

Series [9] relates to BJ. Kind of series: BJ-TERT fibroblast viability loss – cell-based, RAS-independent, luminescence, dose response (AID 1933). It is filed as functional. To be noted: Homo sapiens.
The target in another series is SUMO-activating enzyme (Homo sapiens, UniProt Q9UBT2). The series is described as follows: blockers of UBC9-mediated SUMO conjugation – biochemical, AlphaScreen, SUMOylation inhibitor project, confirmation (AID 2018). The class given is functional. (Alpha assays give light when donor and acceptor beads are brought close together.)
Sequence of SUMO-activating enzyme (Q9UBE0 whole entry): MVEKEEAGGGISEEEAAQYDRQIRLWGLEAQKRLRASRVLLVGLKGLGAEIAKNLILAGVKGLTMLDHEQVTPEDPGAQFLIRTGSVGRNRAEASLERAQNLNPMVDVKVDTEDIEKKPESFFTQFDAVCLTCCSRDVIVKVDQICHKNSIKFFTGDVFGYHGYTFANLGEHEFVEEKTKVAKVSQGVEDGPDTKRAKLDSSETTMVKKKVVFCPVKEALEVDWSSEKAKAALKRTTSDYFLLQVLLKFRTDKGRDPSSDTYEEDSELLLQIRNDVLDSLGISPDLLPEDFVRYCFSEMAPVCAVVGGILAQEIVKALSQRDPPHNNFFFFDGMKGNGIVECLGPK
Sequence of SUMO-activating enzyme (Q9UBT2 whole entry): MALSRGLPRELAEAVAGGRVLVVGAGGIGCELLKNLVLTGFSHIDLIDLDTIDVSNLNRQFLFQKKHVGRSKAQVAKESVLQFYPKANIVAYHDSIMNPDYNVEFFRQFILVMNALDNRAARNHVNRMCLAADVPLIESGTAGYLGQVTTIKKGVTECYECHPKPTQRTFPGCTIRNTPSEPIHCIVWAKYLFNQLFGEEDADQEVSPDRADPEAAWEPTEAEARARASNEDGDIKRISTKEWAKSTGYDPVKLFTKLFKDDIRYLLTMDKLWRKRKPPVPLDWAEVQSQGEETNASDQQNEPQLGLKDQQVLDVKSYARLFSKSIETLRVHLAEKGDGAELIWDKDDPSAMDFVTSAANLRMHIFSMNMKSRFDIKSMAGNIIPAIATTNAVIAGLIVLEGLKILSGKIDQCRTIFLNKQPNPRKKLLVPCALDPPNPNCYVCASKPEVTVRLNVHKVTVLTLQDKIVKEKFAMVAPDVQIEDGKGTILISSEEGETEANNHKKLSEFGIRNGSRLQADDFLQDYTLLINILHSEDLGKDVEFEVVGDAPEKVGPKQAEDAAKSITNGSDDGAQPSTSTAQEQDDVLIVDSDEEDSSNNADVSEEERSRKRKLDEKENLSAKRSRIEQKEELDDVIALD
Series [10] concerns BJ. Kind of series: cells. It is filed as functional, cell-based. To be noted: Homo sapiens.
Series [11] concerns BJ. Kind of series: BJ-TERT-LT-ST fibroblast viability loss – cell-based, RAS-independent, luminescence, dose response (AID 1935).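 Note: BJ fibroblasts immortalized with TERT plus LT and ST oncogenes.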 It is filed as functional. To be noted: Homo sapiens.
The nature of series [12]: DRD fibroblast viability loss – cell-based, non-viral oncogenic, luminescence, dose response (AID 1934). The class given is functional. To be noted: Homo sapiens.
A further series can be described thus: cells. It is filed as functional.
Series [13] relates to HEK293. Kind of series: cells. The following applies: Homo sapiens.
For series [14], the system named is HEK293. Kind of series: cells. The following applies: Homo sapiens. This is another data set of the same source.
Series [15] has as its system HEK293. Kind of series: EBV LMP1 TES2 canonical NF-kB signalling blockers – cell-based, HEK293, luciferase, cherry-pick, dose response (AID 588343). It is filed as functional. The following applies: Homo sapiens.
A further series has as its target Nonstructural protein 1 (Influenza A virus, UniProt Q194T2). The class given is functional, Influenza A virus (A/California/07/2009(H1N1)).
The target of series [16] is Heat shock protein HSP 90-alpha (Homo sapiens, UniProt P07900). The class given is functional, organism-based.

The source made the active and inactive calls.

T1 sequence (P10635 whole entry): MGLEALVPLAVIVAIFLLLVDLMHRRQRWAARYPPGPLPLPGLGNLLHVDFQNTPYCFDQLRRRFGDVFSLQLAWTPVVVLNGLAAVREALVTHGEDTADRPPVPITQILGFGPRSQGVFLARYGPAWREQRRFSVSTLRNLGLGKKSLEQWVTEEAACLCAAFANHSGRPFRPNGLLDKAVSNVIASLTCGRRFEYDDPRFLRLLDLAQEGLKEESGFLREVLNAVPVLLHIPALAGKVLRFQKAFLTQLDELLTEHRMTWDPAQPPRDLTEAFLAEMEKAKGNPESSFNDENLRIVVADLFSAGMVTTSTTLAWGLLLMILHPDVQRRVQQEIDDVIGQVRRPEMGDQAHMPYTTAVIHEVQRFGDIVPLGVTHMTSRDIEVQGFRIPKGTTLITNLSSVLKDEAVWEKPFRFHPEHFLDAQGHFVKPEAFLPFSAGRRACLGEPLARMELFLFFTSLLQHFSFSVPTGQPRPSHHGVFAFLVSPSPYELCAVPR
Sequence of Dual specificity protein kinase CLK1 (P49759 whole entry): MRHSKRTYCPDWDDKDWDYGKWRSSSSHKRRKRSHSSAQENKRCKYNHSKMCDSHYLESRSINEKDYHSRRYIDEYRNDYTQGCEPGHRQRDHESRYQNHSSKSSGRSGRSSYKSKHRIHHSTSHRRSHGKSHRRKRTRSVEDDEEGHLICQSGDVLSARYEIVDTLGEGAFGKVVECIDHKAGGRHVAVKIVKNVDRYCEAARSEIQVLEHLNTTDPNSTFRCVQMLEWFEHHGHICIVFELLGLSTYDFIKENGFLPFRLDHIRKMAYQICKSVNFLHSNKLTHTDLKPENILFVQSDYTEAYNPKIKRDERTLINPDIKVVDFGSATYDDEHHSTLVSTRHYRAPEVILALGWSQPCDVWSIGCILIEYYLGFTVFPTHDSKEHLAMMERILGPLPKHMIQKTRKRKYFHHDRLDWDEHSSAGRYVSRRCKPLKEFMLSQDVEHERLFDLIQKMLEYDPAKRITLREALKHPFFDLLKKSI
Sequence of Phospholipase A2 (P04054 whole entry): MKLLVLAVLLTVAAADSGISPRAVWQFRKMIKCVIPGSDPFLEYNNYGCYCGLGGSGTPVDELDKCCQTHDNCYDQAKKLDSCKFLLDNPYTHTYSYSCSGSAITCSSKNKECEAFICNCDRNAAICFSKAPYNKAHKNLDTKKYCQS
Sequence of DNA dC->dU-editing enzyme APOBEC-3G (Q9HC16 whole entry): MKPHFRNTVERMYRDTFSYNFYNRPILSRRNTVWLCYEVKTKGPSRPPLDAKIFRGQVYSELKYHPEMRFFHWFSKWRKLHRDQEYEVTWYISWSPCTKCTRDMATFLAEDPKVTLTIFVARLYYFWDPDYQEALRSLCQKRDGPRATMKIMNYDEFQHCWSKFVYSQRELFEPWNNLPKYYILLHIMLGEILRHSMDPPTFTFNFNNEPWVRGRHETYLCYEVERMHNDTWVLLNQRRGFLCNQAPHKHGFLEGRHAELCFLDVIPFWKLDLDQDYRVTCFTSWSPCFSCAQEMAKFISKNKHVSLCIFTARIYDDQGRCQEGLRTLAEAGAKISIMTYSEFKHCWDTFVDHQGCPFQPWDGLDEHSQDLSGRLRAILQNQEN
Sequence of DNA dC->dU-editing enzyme APOBEC-3A (P31941 whole entry): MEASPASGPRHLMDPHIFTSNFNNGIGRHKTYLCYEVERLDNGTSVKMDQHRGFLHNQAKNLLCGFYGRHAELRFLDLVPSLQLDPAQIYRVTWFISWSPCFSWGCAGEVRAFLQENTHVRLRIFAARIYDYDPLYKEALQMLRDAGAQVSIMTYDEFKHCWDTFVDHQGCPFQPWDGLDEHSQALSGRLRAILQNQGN
Sequence of Cytochrome P450 3A4 (P08684 whole entry): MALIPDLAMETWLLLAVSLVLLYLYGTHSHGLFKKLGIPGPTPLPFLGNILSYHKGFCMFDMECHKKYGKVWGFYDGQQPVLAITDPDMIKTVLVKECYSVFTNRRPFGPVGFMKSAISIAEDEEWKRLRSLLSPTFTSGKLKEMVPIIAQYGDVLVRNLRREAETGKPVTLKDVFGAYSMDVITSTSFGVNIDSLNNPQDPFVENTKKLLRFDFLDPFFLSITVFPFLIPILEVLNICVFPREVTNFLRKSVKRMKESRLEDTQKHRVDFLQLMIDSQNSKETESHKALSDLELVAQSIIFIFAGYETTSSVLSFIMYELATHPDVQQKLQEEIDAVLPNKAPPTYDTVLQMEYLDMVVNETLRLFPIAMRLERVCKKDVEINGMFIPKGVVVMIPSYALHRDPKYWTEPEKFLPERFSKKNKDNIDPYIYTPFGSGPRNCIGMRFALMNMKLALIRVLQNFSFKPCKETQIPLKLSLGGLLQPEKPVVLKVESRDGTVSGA
Sequence of Nonstructural protein 1 (Q194T2 whole entry): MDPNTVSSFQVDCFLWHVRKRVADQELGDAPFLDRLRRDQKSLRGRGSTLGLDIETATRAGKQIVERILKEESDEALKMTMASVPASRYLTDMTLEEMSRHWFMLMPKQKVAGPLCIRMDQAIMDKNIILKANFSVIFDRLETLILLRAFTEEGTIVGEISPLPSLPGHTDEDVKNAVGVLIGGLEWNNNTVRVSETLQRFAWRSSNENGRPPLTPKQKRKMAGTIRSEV
Sequence of Cytochrome P450 2C19 (P33261 whole entry): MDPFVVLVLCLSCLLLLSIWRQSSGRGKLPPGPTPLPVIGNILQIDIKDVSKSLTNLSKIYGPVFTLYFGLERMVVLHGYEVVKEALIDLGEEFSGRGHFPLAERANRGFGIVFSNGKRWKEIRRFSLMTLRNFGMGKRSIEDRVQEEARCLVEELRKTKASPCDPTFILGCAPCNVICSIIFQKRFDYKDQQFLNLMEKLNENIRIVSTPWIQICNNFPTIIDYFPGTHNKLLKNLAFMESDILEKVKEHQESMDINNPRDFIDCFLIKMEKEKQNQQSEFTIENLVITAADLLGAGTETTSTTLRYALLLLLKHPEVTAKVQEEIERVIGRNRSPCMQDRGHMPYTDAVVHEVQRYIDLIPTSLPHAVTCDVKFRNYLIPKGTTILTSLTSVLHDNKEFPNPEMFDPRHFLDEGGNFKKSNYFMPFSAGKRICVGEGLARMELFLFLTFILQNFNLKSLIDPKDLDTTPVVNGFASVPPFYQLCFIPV

As a reminder, the IC50 is the concentration needed to halve the response being measured. A word on the AC50: it is the concentration giving half of the maximal activity seen. As to `Fc1ccc(NCc2ccccc2F)cc1Cl`, the IC50 on Phospholipase A2 was 8.79 µM (active); at Cysteine protease ATG4B, 13.3 µM (active). Moreover, the AC50 at Cytochrome P450 2D6 [1] is 17.8 µM (inconclusive); at Cytochrome P450 3A4 it was 20 µM (inconclusive); on Cytochrome P450 2C9, 31.6 µM (inconclusive).

`COc1cccc(NC(=O)c2sc(NC(=O)c3ccncc3)nc2C)c1`: the AC50 in series [2] was 22.2 µM (active); in [3], 32.4 µM (active).

As to `CCN=C=NCCCN(C)C`, the AC50 entry on Cytochrome P450 2D6 [4] was “inconclusive”; on Cytochrome P450 1A2 it was 5.01 µM (inconclusive).

Regarding `COc1ccc(N(C(=O)c2snc(C(N)=O)c2N)C(C(=O)NC2CCCC2)c2ccco2)cc1OC` (centres undefined), the IC50 in series [5] was 7.43 µM (active); in series [6], 12 µM (active); on Bcl-2-related protein A1 it was > 20 µM (inactive).

For `Cc1cc2c(ccc3nonc32)[nH]1`, the AC50 in [3] is 5.79 µM (active).

Regarding `Cn1c(=O)c2nc(CCCCc3nc4ccccc4[nH]3)[nH]c2n(C)c1=O`, the AC50 entry at Cytochrome P450 2D6 [4] and at Cytochrome P450 2C19 was “inconclusive” throughout.

`N=C1/C(=C/c2ccc(O)cc2)C(=O)N=C2SN=C(SCc3ccccc3)N12`: the IC50 at Phospholipase A2 was 13.3 µM (active); at Cysteine protease ATG4B, 20.4 µM (inactive).

For `O=C(O)c1ccc2c3c(cccc13)C(=O)N(c1ccccc1)C2=O`, the IC50 was 14 µM (active) in [7] and 37.5 µM (active) in [8]. Moreover, the AC50 on Caspase-6 is 11.9 µM (active).

In the case of `COc1ccc(CCNC(=O)CCn2c(=O)c3ccccc3n(CC(=O)NCC3CCCO3)c2=O)cc1OC` (centres undefined), on Coagulation factor XII, the IC50 was > 50 µM (inactive).

Take `COc1ccc(C(=O)Nn2c(C)nc3ccccc3c2=O)cc1`: the IC50 in series [5] was 6.37 µM (active); in series [6], 10.6 µM (active); on Bcl-2-related protein A1, > 20 µM (inactive).

Consider `CCOc1ncccc1C(=O)OCC(=O)Nc1ccc(C(N)=O)cc1`, for which, at Coagulation factor XII, the IC50 is > 50 µM (inactive).

Consider `Clc1ccc(CNc2ncncc2-c2ccc3c(c2)OCO3)cc1`, for which the AC50 in [2] was 10 µM (active).

With `Clc1ccc(CNc2nccc(-c3ccc4[nH]ncc4c3)n2)cc1Cl`, the AC50 in series [2] was 0.00677 µM (active).

A word on the EC50: it is the midpoint of the concentration-response curve. For the compound `O=C(N/N=C/c1ccc([N+](=O)[O-])o1)c1cc(-c2ccc(-c3ccccc3)cc2)nc2ccccc12`, the EC50 with BJ [9] is 9.46 µM (inconclusive); in the series with BJ [10], 4.52 µM (inconclusive); in the series with BJ [11] it was 11.2 µM (active); in [12], 8.03 µM (inconclusive). Moreover, the IC50 at SUMO-activating enzyme was 15.4 µM (active).

As for `O=C(O)COc1ccc2occ(C(=O)c3ccccc3)c2c1`, the AC50 in series [3] was 6.49 µM (active). Besides, the IC50 in the series “cells” is 12.3 µM (active).

Regarding `CC(=NNC(S)=Nc1ccccc1Cl)c1ccccn1`, the EC50 in the series on HEK293 [13] and in the series with HEK293 [14] was > 59.6 µM (inactive) in each case. In addition, the AC50 with HEK293 [15] was 0.0577 µM (active); in series [16], 3.46 µM (active). Further, the IC50 at Nonstructural protein 1 was 21.7 µM (active).
